Source: ChEMBL document CHEMBL1129595, “Potent 6-desfluoro-8-methylquinolones as new lead compounds in antibacterial chemotherapy” (J Med Chem, 1996)
pIC50: −log10 of the molar value. Converted amounts (≈) assume the structure as drawn.

Columns and labels:
DNA gyrase = DNA gyrase (Escherichia coli, UniProt P0AES4+P0AES6); assay: Inhibitory effect against Escherichia coli Gyrase in Supercoiling assay; format: protein-complex assay
Haemophilus influenzae = assay: In vitro antibacterial activity against Haemophilus influenzae; format: functional
Enterococcus faecalis [1] = assay: In vitro antibacterial activity against Enterococcus faecalis LEP Br; format: functional
Escherichia coli [2] = assay: In vitro antibacterial activity against Escherichia coli ATCC 25922; format: functional
Staphylococcus aureus [3] = assay: In vitro antibacterial activity against Staphylococcus aureus MPR 5; format: functional
Proteus mirabilis = assay: In vitro antibacterial activity against Proteus mirabilis OBT 505; format: functional
Klebsiella pneumoniae = assay: In vitro antibacterial activity against Klebsiella pneumoniae ATCC 10031; format: functional
Enterococcus faecalis [4] = assay: In vitro antibacterial activity against Enterococcus faecalis UCMC 39690; format: functional
Streptococcus pyogenes = assay: In vitro antibacterial activity against Streptococcus pyogenes OMNFI BI; format: functional
Proteus vulgaris = assay: In vitro antibacterial activity against Proteus vulgaris CNUR 6; format: functional
Pseudomonas aeruginosa [5] = assay: In vitro antibacterial activity against Pseudomonas aeruginosa […] 9027; format: functional
Pseudomonas aeruginosa [6] = assay: In vitro antibacterial activity against Pseudomonas aeruginosa OBT 307; format: functional
Staphylococcus aureus [7] = assay: In vitro antibacterial activity against Staphylococcus aureus ATCC 29213; format: functional
Escherichia coli [8] = assay: In vitro antibacterial activity against Escherichia coliCPX-R OBT 431; format: functional
Escherichia coli [9] = assay: In vitro antibacterial activity against Escherichia coli 120; format: functional
[10] = Mean MIC against gram positive; format: functional
Staphylococcus aureus [11] = assay: In vitro antibacterial activity against Staphylococcus aureus CPX-R OBT 687; format: functional
Enterobacter cloacae = assay: In vitro antibacterial activity against Enterobacter cloacae OMNFI 174; format: functional
Streptococcus pneumoniae = assay: In vitro antibacterial activity against Streptococcus pneumoniae I 0.43; format: functional
Staphylococcus aureus [12] = assay: In vitro antibacterial activity against Staphylococcus aureus M-R POMM 6214; format: functional
[13] = Mean MIC against gram negative; format: functional

| SMILES | pIC50 (DNA gyrase) | MIC (Haemophilus influenzae) [µg/mL] | MIC (Enterococcus faecalis [1]) [µg/mL] | MIC (Escherichia coli [2]) [µg/mL] | MIC (Staphylococcus aureus [3]) [µg/mL] | MIC (Proteus mirabilis) [µg/mL] | MIC (Klebsiella pneumoniae) [µg/mL] | MIC (Enterococcus faecalis [4]) [µg/mL] | MIC (Streptococcus pyogenes) [µg/mL] | MIC (Proteus vulgaris) [µg/mL] | MIC (Pseudomonas aeruginosa [5]) [µg/mL] | MIC (Pseudomonas aeruginosa [6]) [µg/mL] | MIC (Staphylococcus aureus [7]) [µg/mL] | MIC (Escherichia coli [8]) [µg/mL] | MIC (Escherichia coli [9]) [µg/mL] | MIC [10] [µg/mL] | MIC (Staphylococcus aureus [11]) [µg/mL] | MIC (Enterobacter cloacae) [µg/mL] | MIC (Streptococcus pneumoniae) [µg/mL] | MIC (Staphylococcus aureus [12]) [µg/mL] | further results |
| --- | --- | --- | --- | --- | --- | --- | --- | --- | --- | --- | --- | --- | --- | --- | --- | --- | --- | --- | --- | --- | --- |
| Cc1c(N2CCCCC2)c(N)cc2c(=O)c(C(=O)O)cn(C3CC3)c12 | 5.03 | < 0.016 | 0.5 (≈ 1.46 µM) | 0.125 (≈ 0.366 µM) | < 0.016 | 4 (≈ 11.7 µM) | < 0.016 | 1 (≈ 2.93 µM) | 0.5 (≈ 1.46 µM) | > 16 | 4 (≈ 11.7 µM) | 16 (≈ 46.9 µM) | 0.05 (≈ 0.146 µM) | > 16 | 0.5 (≈ 1.46 µM) | 0.376 (≈ 1.1 µM) | 8 (≈ 23.4 µM) | 1 (≈ 2.93 µM) | 2 (≈ 5.86 µM) | 0.125 (≈ 0.366 µM) | MIC [13]: 1 µg/mL (≈ 2.94 µM) |
| Cc1c(N2CCN(C)CC2)c(N)cc2c(=O)c(C(=O)O)cn(C3CC3)c12 | 4.97 | 0.03 (≈ 0.0842 µM) | 2 (≈ 5.61 µM) | 0.03 (≈ 0.0842 µM) | 1 (≈ 2.81 µM) | 1 (≈ 2.81 µM) | 0.03 (≈ 0.0842 µM) | 4 (≈ 11.2 µM) | 4 (≈ 11.2 µM) | 8 (≈ 22.4 µM) | 2 (≈ 5.61 µM) | 8 (≈ 22.4 µM) | 1 (≈ 2.81 µM) | > 16 | 0.06 (≈ 0.168 µM) | 3.36 (≈ 9.44 µM) | > 16 | 0.125 (≈ 0.351 µM) | 8 (≈ 22.4 µM) | 4 (≈ 11.2 µM) | MIC [13]: 0.459 µg/mL (≈ 1.29 µM) |
| O=C(O)c1cn(C2CC2)c2cc(N3CCNCC3)c(F)cc2c1=O [CIPROFLOXACIN] |  | < 0.016 | 1 (≈ 3.02 µM) | < 0.016 | 0.25 (≈ 0.754 µM) | 0.06 (≈ 0.181 µM) | < 0.016 | 0.5 (≈ 1.51 µM) | 0.5 (≈ 1.51 µM) | 0.5 (≈ 1.51 µM) | 0.06 (≈ 0.181 µM) | 1 (≈ 3.02 µM) | 0.5 (≈ 1.51 µM) |  | < 0.016 | 0.917 (≈ 2.77 µM) | > 16 |  | 1 (≈ 3.02 µM) | 1 (≈ 3.02 µM) | MIC [13]: 0.083 µg/mL (≈ 0.25 µM) |

Further lines, with some results ahead:

| pIC50 (DNA gyrase) | MIC (Haemophilus influenzae) [µg/mL] | MIC (Enterococcus faecalis [1]) [µg/mL] | MIC (Escherichia coli [2]) [µg/mL] | MIC (Staphylococcus aureus [3]) [µg/mL] | MIC (Proteus mirabilis) [µg/mL] | MIC (Klebsiella pneumoniae) [µg/mL] | MIC (Enterococcus faecalis [4]) [µg/mL] | MIC (Streptococcus pyogenes) [µg/mL] | MIC (Proteus vulgaris) [µg/mL] | MIC (Pseudomonas aeruginosa [5]) [µg/mL] | MIC (Pseudomonas aeruginosa [6]) [µg/mL] | MIC (Staphylococcus aureus [7]) [µg/mL] | MIC (Escherichia coli [8]) [µg/mL] | MIC (Escherichia coli [9]) [µg/mL] | MIC [10] [µg/mL] | MIC (Staphylococcus aureus [11]) [µg/mL] | MIC (Enterobacter cloacae) [µg/mL] | MIC (Streptococcus pneumoniae) [µg/mL] | MIC (Staphylococcus aureus [12]) [µg/mL] | SMILES | further results |
| --- | --- | --- | --- | --- | --- | --- | --- | --- | --- | --- | --- | --- | --- | --- | --- | --- | --- | --- | --- | --- | --- |
| 4.08 | 0.06 (≈ 0.176 µM) | 2 (≈ 5.86 µM) | 0.06 (≈ 0.176 µM) | 0.25 (≈ 0.732 µM) | 2 (≈ 5.86 µM) | < 0.016 | 1 (≈ 2.93 µM) | 2 (≈ 5.86 µM) | 8 (≈ 23.4 µM) | 2 (≈ 5.86 µM) | 16 (≈ 46.9 µM) | 0.25 (≈ 0.732 µM) | > 16 | 0.06 (≈ 0.176 µM) | 1.09 (≈ 3.19 µM) | 8 (≈ 23.4 µM) | 0.25 (≈ 0.732 µM) | 2 (≈ 5.86 µM) | 0.5 (≈ 1.46 µM) | Cc1c(N2CCN(C)CC2)ccc2c(=O)c(C(=O)O)cn(C3CC3)c12 | Mean MIC [10]: 0.609 µg/mL |
| 4.78 | < 0.016 | 0.25 (≈ 0.696 µM) | < 0.016 | 0.06 (≈ 0.167 µM) | 0.5 (≈ 1.39 µM) | < 0.016 | 0.271 (≈ 0.754 µM) | 0.25 (≈ 0.696 µM) | 0.5 (≈ 1.39 µM) | 0.5 (≈ 1.39 µM) | 0.2 (≈ 0.556 µM) | 0.125 (≈ 0.348 µM) | 4 (≈ 11.1 µM) | < 0.016 | 0.271 (≈ 0.754 µM) | 2 (≈ 5.56 µM) | 0.125 (≈ 0.348 µM) | 1 (≈ 2.78 µM) | 0.125 (≈ 0.348 µM) | Cc1c(N2CCN(C)CC2)c(F)cc2c(=O)c(C(=O)O)cn(C3CC3)c12 | MIC [13]: 0.155 µg/mL (≈ 0.431 µM) |
| 5.36 | < 0.016 | 0.5 (≈ 1.45 µM) | < 0.016 | 0.125 (≈ 0.362 µM) | 0.25 (≈ 0.724 µM) | < 0.016 | 0.25 (≈ 0.724 µM) | 2 (≈ 5.79 µM) | 0.5 (≈ 1.45 µM) | 0.5 (≈ 1.45 µM) | 0.25 (≈ 0.724 µM) | 0.125 (≈ 0.362 µM) | > 16 | < 0.016 | 0.648 (≈ 1.88 µM) | 16 (≈ 46.3 µM) | < 0.016 | 0.5 (≈ 1.45 µM) | 1 (≈ 2.9 µM) | CN1CCN(c2cc3c(cc2F)c(=O)c(C(=O)O)cn3C2CC2)CC1 | MIC [13]: 0.11 µg/mL (≈ 0.318 µM) |
